Laboratory results: patent US20230338370A1, “Treatment of Cancer with TOR Kinase Inhibitors” (Signal Pharmaceuticals, LLC, priority 2012, published 2023)

Experiments:
CAL-120 = assay: Growth inhibition assay for Breast Cancer (BC) Cell lines; assay type: cell-based; conditions: Homo sapiens; CAL-120, TN; 96 hours, Cell Titer-Glo
Procedure: (§1) Growth inhibition assay for Breast Cancer (BC) Cell lines. Compounds 1 (a TOR kinase inhibitor set forth herein having molecular formula C16H16N8O) and 2 (a TOR kinase inhibitor set forth herein having molecular formula C17H18N8O2) were dissolved in dimethyl sulfoxide (DMSO) to prepare a 10 mM stock solution. A serial titration was performed to produce a working concentration range of 1.5 µM to 10 mM. Aliquots to produce final concentrations of 1.5 nM to 10 µM were spotted via an acoustic dispenser (EDC ATS-100) into an empty 384-well plate. Compounds 1 and 2 were spotted in a 10-point serial dilution fashion (3-fold dilution) in duplicate within the plate. The DMSO concentration was kept constant for a final assay concentration of 0.1% DMSO. Plates were replicated for use with different cell lines and testing periods. After compound plate replication, all plates were sealed (Agilent ThermoLoc) and stored at -20° C. for up to 1 month. […] When ready for testing, plates were removed from the freezer, thawed, and unsealed just prior to the addition of the test cells. Prior to testing, cells were grown and expanded in culture flasks to provide sufficient amounts of starting material. Cells were then diluted to the appropriate densities and added directly to the compound-spotted 384-well plates. Cells were allowed to grow for 96 hours at 37° C./5% CO2. At the time when compound was added (t0), initial cell number was assessed via a viability assay (Cell Titer-Glo) by quantifying the level of luminescence generated by ATP present in viable cells. After 96 hours, cell viability of compound-treated cells was assessed via Cell Titer-Glo and luminescence measurement. Cell lines were assayed for growth inhibition by Compounds 1 and 2 in at least 3 independent tests. A control cell line (the lung tumor cell line, A549) was included in each of the assays. The compound response against this control cell line was monitored closely to enable comparison of the data generated through the assay period. All data were normalized and presented as a percentage of the DMSO-treated cells. Results were then expressed as a GI50 value. The GI50 value corrects for the cell count at time zero.

MDA-MB-436 = assay: as above; assay type: cell-based; conditions: Homo sapiens; MDA-MB-436, TN; 96 hours, Cell Titer-Glo
Procedure: as §1

HS578T = assay: as above; assay type: cell-based; conditions: Homo sapiens, Hs-578T, TN, 96 hours, Cell Titer-Glo
Procedure: as §1

HCC1187 = assay: as above; assay type: cell-based; conditions: Homo sapiens; HCC1187, TN; 96 hours, Cell Titer-Glo
Procedure: as §1

CAL-51 = assay: as above; assay type: cell-based; conditions: Homo sapiens; CAL-51, TN; 96 hours, Cell Titer-Glo
Procedure: as §1

HCC2157 = assay: as above; assay type: cell-based; conditions: Homo sapiens; HCC2157, TN; 96 hours, Cell Titer-Glo
Procedure: as §1

BT-20 = assay: as above; assay type: cell-based; conditions: Homo sapiens; BT-20, TN; 96 hours, Cell Titer-Glo
Procedure: as §1

DU4475 = assay: as above; assay type: cell-based; conditions: Homo sapiens, DU-4475; DU4475, TN; 96 hours, Cell Titer-Glo
Procedure: as §1

CAL-148 = assay: as above; assay type: cell-based; conditions: Homo sapiens; CAL-148, TN; 96 hours, Cell Titer-Glo
Procedure: as §1

BT-549 = assay: as above; assay type: cell-based; conditions: Homo sapiens; BT-549, TN; 96 hours, Cell Titer-Glo
Procedure: as §1

HCC1806 = assay: as above; assay type: cell-based; conditions: Homo sapiens; HCC1806, TN; 96 hours, Cell Titer-Glo
Procedure: as §1

HCC38 = assay: as above; assay type: cell-based; conditions: Homo sapiens; HCC38, TN; 96 hours, Cell Titer-Glo
Procedure: as §1

MDA-MB-468 = assay: as above; assay type: cell-based; conditions: Homo sapiens; MDA-MB-468, TN; 96 hours, Cell Titer-Glo
Procedure: as §1

MB157 = assay: as above; assay type: cell-based; conditions: MB157, TN; 96 hours, Cell Titer-Glo
Procedure: as §1

HCC1937 = assay: as above; assay type: cell-based; conditions: Homo sapiens; HCC1937, TN; 96 hours, Cell Titer-Glo
Procedure: as §1

MDA-MB-157 = assay: as above; assay type: cell-based; conditions: Homo sapiens; MDA-MB-157, TN; 96 hours, Cell Titer-Glo
Procedure: as §1

MT-3 = assay: as above; assay type: cell-based; conditions: MT-3, TN; 96 hours, Cell Titer-Glo
Procedure: as §1

HDQ-P1 = assay: as above; assay type: cell-based; conditions: Homo sapiens; HDQ-P1, TN; 96 hours, Cell Titer-Glo
Procedure: as §1

MDA-MB-231 tumors = assay: MDA-MB-231 Triple Negative (TN) Breast Cancer Model (xenograft); assay type: in vivo; conditions: nude mice, subcutaneous MDA-MB-231 xenograft; oral QD for up to 26 days, 1 to 5 mg/kg
Procedure: A xenograft study was conducted with MDA-MB-231 tumor-bearing mice. Nude mice were inoculated subcutaneously with MDA-MB-231 cells in the flank region above the right hind leg. Following inoculation of animals, the tumors were allowed to grow to about 150 mm^3 prior to randomization. On Day 38 following tumor cell inoculation, the mice bearing MDA-MB-231 tumors ranging between 65 and 304 mm^3 were pooled together and randomized into various treatment groups. […] The positive control Taxotere (15 mg/kg, Q4D) was administered via the intravenous (IV) route. Taxotere was diluted in saline. Tumors were measured twice a week using calipers and tumor volumes were calculated using the formula of W2 × L / 2 (wherein “W” is tumor width and “L” is tumor length).

In the case of `CCN1C(=O)CNc2ncc(-c3ccc(-c4nc[nH]n4)nc3C)nc21` [Compound 1, 1-ethyl-7-(2-methyl-6-(1H-1,2,4-triazol-3-yl)pyridin-3-yl)-3,4-dihydropyrazino[2,3-b]pyrazin-2(1H)-one], the GI50 (CAL-120) is reported as 182 nM, the GI50 (MDA-MB-436) is reported as 279 nM and the GI50 (HS578T) is reported as 286 nM. It also gave a GI50 (HCC1187) of 195 nM, a GI50 (CAL-51) of 71 nM and a GI50 (HCC2157) of 51.5 nM. The GI50 (BT-20) was 116 nM, the GI50 (DU4475) was 237 nM and the GI50 (CAL-148) was 187 nM. It also gave a GI50 (BT-549) of 146 nM, a GI50 (HCC1806) of 187 nM and a GI50 (HCC38) of 430 nM. The GI50 (MDA-MB-468) was 87.2 nM, the GI50 (MB157) was 346 nM and the GI50 (HCC1937) was 161 nM. For the same compound, the GI50 (MDA-MB-157) was 472 nM, the GI50 (MT-3) was 150 nM and the GI50 (HDQ-P1) was 162 nM. The tumor growth (MDA-MB-231 tumors) was “inhibited MDA-MB-231 breast cancer tumor growth”.
